Results: patent US4868321A, “Isothiocyanate intermediates” (FMC Corporation, priority 1988, dated 1989)

What was measured:
Assay type in all cases: in vivo
Cotton [1] = assay: Preemergence Herbicidal Activity, Cotton; conditions: Gossypium hirsutum, pre-emergence
From the text: (§1) The herbicidal data in the following Tables 3 and 4 was obtained in the manner described in PCT published application no. WO 85/01939, previously mentioned, usually employing solutions of the herbicidal compound in 50/50 acetone/water mixtures. In those tables, the test compounds are identified by numbers which correspond to those in Table 1, "kg/ha" is kilograms per hectare, and "% C" is percent control.

Soybean [2] = assay: Preemergence Herbicidal Activity, Soybean; conditions: Glycine max, pre-emergence
From the text: (§2) The herbicidal data in the following Tables 3 and 4 was obtained in the manner described in PCT published application no. […] In those tables, the test compounds are identified by numbers which correspond to those in Table 1, "kg/ha" is kilograms per hectare, and "% C" is percent control.

Field Corn [3] = assay: Preemergence Herbicidal Activity, Field Corn; conditions: Zea mays, pre-emergence
From the text: as §2

Rice [4] = assay: Preemergence Herbicidal Activity, Rice; conditions: Oryza sativa, pre-emergence
From the text: as §2

Wheat [5] = assay: Preemergence Herbicidal Activity, Wheat; conditions: Triticum aestivum, pre-emergence
From the text: as §2

Field Bindweed [6] = assay: Preemergence Herbicidal Activity, Field Bindweed; conditions: pre-emergence
From the text: as §1

Morningglory [7] = assay: Preemergence Herbicidal Activity, Morningglory; conditions: Ipomoea, pre-emergence
From the text: as §1

Velvetleaf [8] = assay: Preemergence Herbicidal Activity, Velvetleaf; conditions: Abutilon theophrasti, pre-emergence
From the text: as §1

Barnyardgrass [9] = assay: Preemergence Herbicidal Activity, Barnyardgrass; conditions: Echinochloa crus-galli, pre-emergence
From the text: as §2

Green Foxtail [10] = assay: Preemergence Herbicidal Activity, Green Foxtail; conditions: Setaria viridis, pre-emergence
From the text: as §2

Johnsongrass [11] = assay: Preemergence Herbicidal Activity, Johnsongrass; conditions: Sorghum halepense, pre-emergence
From the text: as §2

Cotton [12] = assay: Postemergence Herbicidal Activity, Cotton; conditions: Gossypium hirsutum, post-emergence
From the text: as §1

Soybean [13] = assay: Postemergence Herbicidal Activity, Soybean; conditions: Glycine max, post-emergence
From the text: as §2

Field Corn [14] = assay: Postemergence Herbicidal Activity, Field Corn; conditions: Zea mays, post-emergence
From the text: as §2

Rice [15] = assay: Postemergence Herbicidal Activity, Rice; conditions: Oryza sativa, post-emergence
From the text: as §2

Wheat [16] = assay: Postemergence Herbicidal Activity, Wheat; conditions: Triticum aestivum, post-emergence
From the text: as §2

Field Bindweed [17] = assay: Postemergence Herbicidal Activity, Field Bindweed; conditions: post-emergence
From the text: as §1

Morningglory [18] = assay: Postemergence Herbicidal Activity, Morningglory; conditions: Ipomoea, post-emergence
From the text: as §1

Velvetleaf [19] = assay: Postemergence Herbicidal Activity, Velvetleaf; conditions: Abutilon theophrasti, post-emergence
From the text: as §1

Barnyardgrass [20] = assay: Postemergence Herbicidal Activity, Barnyardgrass; conditions: Echinochloa crus-galli, post-emergence
From the text: as §2

Green Foxtail [21] = assay: Postemergence Herbicidal Activity, Green Foxtail; conditions: Setaria viridis, post-emergence
From the text: as §2

Johnsongrass [22] = assay: Postemergence Herbicidal Activity, Johnsongrass; conditions: Sorghum halepense, post-emergence
From the text: as §2

CS(=O)(=O)Nc1cc(-n2nnn(CCCF)c2=O)c(F)cc1Cl [Compound 2, 1-[4-chloro-2-fluoro-5-(N--methylsulfonylamino)phenyl]-1,4-dihydro-4-(3-fluoropropyl)-5H--tetrazol-5-one]
plant injury at 250 g/ha (Cotton [1]; 0.25 kg/ha): 95% | plant injury at 250 g/ha (Soybean [2]; 0.25 kg/ha): 20% | plant injury at 250 g/ha (Field Corn [3]; 0.25 kg/ha): 40% | plant injury at 250 g/ha (Rice [4]; 0.25 kg/ha): 70% | plant injury at 250 g/ha (Wheat [5]; 0.25 kg/ha): 10% | pest or weed control at 250 g/ha (Field Bindweed [6]; 0.25 kg/ha): 100% | pest or weed control at 250 g/ha (Morningglory [7]; 0.25 kg/ha): 100% | pest or weed control at 250 g/ha (Velvetleaf [8]; 0.25 kg/ha): 100% | pest or weed control at 250 g/ha (Barnyardgrass [9]; 0.25 kg/ha): 60% | pest or weed control at 250 g/ha (Green Foxtail [10]; 0.25 kg/ha): 40% | pest or weed control at 250 g/ha (Johnsongrass [11]; 0.25 kg/ha): 40% | plant injury at 250 g/ha (Cotton [12]; 0.25 kg/ha): 100% | plant injury at 250 g/ha (Soybean [13]; 0.25 kg/ha): 50% | plant injury at 250 g/ha (Field Corn [14]; 0.25 kg/ha): 80% | plant injury at 250 g/ha (Rice [15]; 0.25 kg/ha): 50% | plant injury at 250 g/ha (Wheat [16]; 0.25 kg/ha): 20% | pest or weed control at 250 g/ha (Field Bindweed [17]; 0.25 kg/ha): 100% | pest or weed control at 250 g/ha (Morningglory [18]; 0.25 kg/ha): 100% | pest or weed control at 250 g/ha (Velvetleaf [19]; 0.25 kg/ha): 100% | pest or weed control at 250 g/ha (Barnyardgrass [20]; 0.25 kg/ha): 40% | pest or weed control at 250 g/ha (Green Foxtail [21]; 0.25 kg/ha): 50% | pest or weed control at 250 g/ha (Johnsongrass [22]; 0.25 kg/ha): 50%

CS(=O)(=O)N(c1cc(-n2nnn(CCCF)c2=O)ccc1Cl)S(C)(=O)=O [Compound 6]
plant injury at 8000 g/ha (Cotton [1]; 8.0 kg/ha): 70% | plant injury at 8000 g/ha (Soybean [2]; 8.0 kg/ha): 30% | plant injury at 8000 g/ha (Field Corn [3]; 8.0 kg/ha): 20% | plant injury at 8000 g/ha (Wheat [5]; 8.0 kg/ha): 0% | pest or weed control at 8000 g/ha (Field Bindweed [6]; 8.0 kg/ha): 20% | pest or weed control at 8000 g/ha (Morningglory [7]; 8.0 kg/ha): 60% | pest or weed control at 8000 g/ha (Velvetleaf [8]; 8.0 kg/ha): 95% | pest or weed control at 8000 g/ha (Barnyardgrass [9]; 8.0 kg/ha): 30% | pest or weed control at 8000 g/ha (Green Foxtail [10]; 8.0 kg/ha): 30% | pest or weed control at 8000 g/ha (Johnsongrass [11]; 8.0 kg/ha): 20% | plant injury at 8000 g/ha (Cotton [12]; 8.0 kg/ha): 90% | plant injury at 8000 g/ha (Soybean [13]; 8.0 kg/ha): 50% | plant injury at 8000 g/ha (Field Corn [14]; 8.0 kg/ha): 40% | plant injury at 8000 g/ha (Rice [15]; 8.0 kg/ha): 30% | plant injury at 8000 g/ha (Wheat [16]; 8.0 kg/ha): 20% | pest or weed control at 8000 g/ha (Field Bindweed [17]; 8.0 kg/ha): 70% | pest or weed control at 8000 g/ha (Morningglory [18]; 8.0 kg/ha): 100% | pest or weed control at 8000 g/ha (Velvetleaf [19]; 8.0 kg/ha): 100% | pest or weed control at 8000 g/ha (Barnyardgrass [20]; 8.0 kg/ha): 50% | pest or weed control at 8000 g/ha (Green Foxtail [21]; 8.0 kg/ha): 50% | pest or weed control at 8000 g/ha (Johnsongrass [22]; 8.0 kg/ha): 20%

CS(=O)(=O)N(c1cc(-n2nnn(CCCF)c2=O)c(F)cc1F)S(C)(=O)=O [Compound 8, 1-[2,4-difluoro-5-[bis(N--methylsulfonyl)amino]phenyl]-1,4-dihydro-4-(3-fluoropropyl)-5H--tetrazol-5-one]
plant injury at 500 g/ha (Cotton [1]; 0.5 kg/ha): 95% | plant injury at 500 g/ha (Soybean [2]; 0.5 kg/ha): 30% | plant injury at 500 g/ha (Field Corn [3]; 0.5 kg/ha): 40% | plant injury at 500 g/ha (Rice [4]; 0.5 kg/ha): 70% | plant injury at 500 g/ha (Wheat [5]; 0.5 kg/ha): 10% | pest or weed control at 500 g/ha (Field Bindweed [6]; 0.5 kg/ha): 40% | pest or weed control at 500 g/ha (Morningglory [7]; 0.5 kg/ha): 60% | pest or weed control at 500 g/ha (Velvetleaf [8]; 0.5 kg/ha): 100% | pest or weed control at 500 g/ha (Barnyardgrass [9]; 0.5 kg/ha): 40% | pest or weed control at 500 g/ha (Green Foxtail [10]; 0.5 kg/ha): 50% | pest or weed control at 500 g/ha (Johnsongrass [11]; 0.5 kg/ha): 50% | plant injury at 500 g/ha (Cotton [12]; 0.5 kg/ha): 95% | plant injury at 500 g/ha (Soybean [13]; 0.5 kg/ha): 40% | plant injury at 500 g/ha (Field Corn [14]; 0.5 kg/ha): 50% | plant injury at 500 g/ha (Rice [15]; 0.5 kg/ha): 20% | plant injury at 500 g/ha (Wheat [16]; 0.5 kg/ha): 30% | pest or weed control at 500 g/ha (Field Bindweed [17]; 0.5 kg/ha): 30% | pest or weed control at 500 g/ha (Morningglory [18]; 0.5 kg/ha): 40% | pest or weed control at 500 g/ha (Velvetleaf [19]; 0.5 kg/ha): 95% | pest or weed control at 500 g/ha (Barnyardgrass [20]; 0.5 kg/ha): 40% | pest or weed control at 500 g/ha (Green Foxtail [21]; 0.5 kg/ha): 50% | pest or weed control at 500 g/ha (Johnsongrass [22]; 0.5 kg/ha): 30%
